According to US20220304929A1, “LIPIDS FOR DELIVERY OF CHARGED MATERIAL, FORMULATIONS THEREOF AND METHOD FOR MAKING SAME” (INTEGRATED NANOTHERAPEUTICS INC., priority 2019, published 2022):
“Also recorded” adds a separate entry of the source.

Tests used:
[1] = Peptide incorporation into LNP (Peptide:Lipid ratio; BCA or CBQCA protein quantification); format: physicochemical
Experimental: (§1) Lipid concentrations were determined by measuring total cholesterol using the Cholesterol E enzymatic assay kit from Wako Chemicals USA (Richmond, Va.).
Quantification of protein/peptide was performed with the use of either the BCA Protein Assay (Pierce) or the CBQCA Protein Quantitation Kit (Invitrogen) according to the manufacturer's instructions.

[2] = HA incorporation into LNP (HA:Lipid ratio); format: physicochemical; conditions: LNP containing ionizable lipid and HA (8-15 kDa)
Experimental: as §1
Hyaluronic acid was used as an example of anionic cargos. LNPs were prepared as described in Example 2 containing HA with a molecular weight of 8-15 kDa.

[3] = RNA or antisense oligonucleotide encapsulation efficiency (Quant-iT Ribogreen RNA / Oligreen ssDNA assays); format: physicochemical
Experimental: The RNA or antisense oligonucleotide encapsulation efficiency was determined using the Quant-iT Ribogreen RNA or Oligreen ssDNA Assays, respectively (Life Technologies, Burlington, ON). Briefly, LNP was incubated at 37° C. for 10 min in the presence or absence of 1% Triton X-100 (Sigma-Aldrich, St. Louis, Mo.) followed by the addition of the Ribogreen or Oligreen reagent. The fluorescence intensity (Ex/Em: 480/520 nm) was determined and samples treated with Triton X-100 represent total nucleic acid while untreated samples represent unencapsulated nucleic acid.
To prepare the LNPs, ionizable lipid, DSPC, cholesterol and PEG-DMPE were dissolved in ethanol. The siRNA was dissolved in pH 4.0-6.2 buffer composed of 10-50 mM acetate, succinate or citrate. In select cases, 10-50 mM 4-(2-Hydroxyethyl)piperazine-1-ethanesulfonic acid (HEPES) or 2-(N-Morpholino)ethanesulfonic acid (MES) buffer was used. LNP were prepared by rapidly mixing the lipid components in ethanol (in molar ratio of 50/10/38.5/1.5 of […]) with nucleic acids in aqueous buffer at a volumetric flow rate ratio of 1:3 (ethanol to aqueous, combined flow rate >12 mL/min) at room temperature. Typically, siRNA/lipids ratios were targeted for 0.056 wt/μmol. The product was then dialyzed against 1× phosphate-buffered saline (PBS) at pH 7.4 for 24 hours to remove residual ethanol and to raise the pH. PBS was refreshed after 4 hours.

[4] = tested on: Firefly Luciferase mRNA expression in liver; assay: LNP luciferase mRNA expression in vivo in the liver of mice; parameters: species or system mouse; conditions: C57Bl/6 mice, 1 mg/kg mRNA i.v., liver at 4 hours post-injection
Experimental: Lipid nanoparticle (LNP) formulations containing cationic lipids of the disclosure and Luciferase mRNA were injected via a tail vein in C57Bl/6 wild-type mice at mRNA dose of 1 mg/kg and the luminescence in the liver was measured post injection. From left-to-right, the cationic lipids incorporated in the LNP-mRNA were INT-A001, INT-A002, INT-A003 and INT-A004. Untreated animals were injected with phosphate buffered saline (PBS).
To assess in vivo activity, LNPs containing Firefly Luciferase mRNA were prepared as described in Example 2. LNPs were diluted with PBS and administered at 1 mg/kg intravenously via tail vein in 6 to 8 weeks old female C57Bl/6 mice (Charles River Laboratories, Wilmington, Mass.). At 4 hours post-injection, animals were euthanized and the livers were collected. Approximately 100 mg of liver was homogenized in 0.5 mL Glo Lysis Buffer (Promega). The homogenate was further diluted 1:4 with the lysis buffer and then 50 μL of diluted homogenate was added to 50 μL Steady-Glo reagent (Promega). The level of luminescence was determined using a Synergy LX plate reader (BioTek).

[5] = LNP particle size and polydispersity by dynamic light scattering; format: physicochemical
[6] = tested on: factor VII (FVII); assay: LNP-siRNA activity in the mouse Factor VII model; format: in vivo; conditions: C57Bl/6 mice, 24 hours post-injection; for Activity in mediating FVII gene-silencing (residual serum FVII levels): i.v. tail vein, 0.03-0.3 mg/kg siRNA
Experimental: Lipid nanoparticle (LNP) formulations containing cationic lipids of the disclosure and FVII siRNA were injected via a tail vein in C57Bl/6 wild-type mice and the levels of FVII in plasma was measured post injection. The mice were injected with LNP-siRNA at doses of 0.03 (left bar), 0.1 (middle bar) and 0.3 mg/kg (right bar). The cationic lipids incorporated in the LNPs were INT-A001, INT-A002, INT-A003 and INT-A007.
LNPs prepared as described in Example 2 containing siRNA against factor VII (FVII) were diluted with PBS such that injection volumes were maintained at 10 mL/kg body weight and administered (based on siRNA concentration) intravenously via tail vein in 6 to 8 weeks old female C57Bl/6 mice (Charles River Laboratories, Wilmington, Mass.). At 24 hours post-injection, animals were euthanized and blood was collected via intracardiac sampling. Blood samples were allowed to coagulate at 4° C. overnight and the serum was separated followed by centrifugation for 15 min at 12,000 rpm. The serum FVII levels were determined using the Biophen VII chromogenic assay (Aniara, Mason, Ohio) according to the protocol of the manufacturer.

[7] = tested on: HepG2 cells; assay: LNP luciferase mRNA expression in cultured HepG2 cells; format: cell-based; conditions: 0.125-1 μg/mL luciferase mRNA, 16-24 hr
Experimental: Cells were treated with LNP formulations containing ionizable lipids of the disclosure and luciferase mRNA at concentrations of 0.125-1 μg/mL. The level of luminescence was measured post treatment. From left-to-right, the ionizable lipids incorporated in the LNPs were INT-A001 (white bar), INT-A002 (dotted bar), INT-A003 (black bar) and INT-A004 (gray bar).
The activity of the ionizable lipids in vitro was evaluated in cultured HepG2 cells. LNPs containing Firefly Luciferase mRNA were prepared as described in Example 2. LNPs were diluted to 0.125-1 μg/mL with DMEM media containing 10% FBS and incubated with HepG2 cells for 16-24 hr. Cells were then lysed with Glo-Lysis Buffer (Promega). Equal amounts of Steady-Glo reagent (Promega) was added to each sample and the level of luminescence was determined using a Synergy LX plate reader (BioTek).

[8] = Apparent pKa of LNP systems (TNS fluorescence assay); format: physicochemical; conditions: LNP containing ionizable lipid and FVII siRNA
Experimental: Apparent acid dissociation constants (pKa) of LNP systems were determined according to a procedure described in the literature (Jayaraman, M., et al., Maximizing the potency of siRNA lipid nanoparticles for hepatic gene silencing in vivo. Angewandte Chemie, 2012. 51(34): p. 8529-33). Briefly, 2-(p-toluidino)-6-napthalene sulfonic acid (TNS, Sigma-Aldrich, St. Louis, Mo.) and LNP were diluted in buffer (10 mM HEPES, 10 mM MES and 10 mM ammonium acetate) with pH ranges from 2.5 to 11. Final concentration of TNS or total lipid was 6 μM. Samples were then mixed and fluorescence intensity was measured (Ex/Em: 321/445 nm) using a Perkin Elmer LS55. A sigmoidal best fit analysis was applied and the pKa was measured as the pH at half-maximal fluorescence intensity.

[9] = LNP containing ionizable lipid and a 2.0 kDa acidic peptide (net charge -3)
[10] = LNP containing ionizable lipid and a 4.2 kDa acidic peptide (net charge -3)
[11] = LNP containing ionizable lipid and Luciferase mRNA
[12] = LNP containing ionizable lipid and antisense oligonucleotide
[13] = LNP containing ionizable lipid and siRNA
[14] = LNP containing ionizable lipid and HA (8-15 kDa)
[15] = LNP containing ionizable lipid and a 2.0 kDa basic peptide (net charge +4)

Compound | Peptide:Lipid [1, 9] [wt/wt] | Peptide:Lipid [1, 10] [wt/wt] | HA:Lipid [2] [wt/wt] | Encapsulation Efficiency [3, 11] [%] | Encapsulation Efficiency [3, 12] [%] | Encapsulation Efficiency [3, 13] [%] | Activity in delivering mRNA and inducing mRNA expression in vivo (liver luminescence) [4] | Particle Diameter [5, 14] [nm] | Polydispersity index (PDI) [5, 14] | Particle Diameter [5, 11] [nm] | Polydispersity index (PDI) [5, 11] | Particle Diameter [5, 9] [nm] | Polydispersity index (PDI) [5, 9] | Particle Diameter [5, 10] [nm] | Polydispersity index (PDI) [5, 10] | Particle Diameter [5, 12] [nm] | Polydispersity index (PDI) [5, 12] | Particle Diameter [5, 13] [nm] | Polydispersity index (PDI) [5, 13] | Activity in delivering mRNA and inducing its expression in vitro (luminescence) [7] | further results
CCCCC/C=C\C/C=C\CCCCCCCC(=O)O[C@@H](CCCCCCCC)[C@@H](CCCCCCCC(=O)OCCCN(C)C)OC(=O)CCCCCCC/C=C\C/C=C\CCCCC (racemic) [INT-A003, 3-(Dimethylamino)propyl (±)-syn-9,10-dilinoleoxystearate] | 0.074 | 0.160 | 0.094 | 99 | 89 | 92 | can effectively deliver mRNA | 64 | 0.035 | 49 | 0.050 | 142 | 0.025 | 76 | 0.031 | 54 | 0.036 | 55 | 0.043 | can effectively deliver mRNA; also recorded: most active | Activity in mediating FVII gene-silencing (residual serum FVII levels) [6]: active in mediating gene-silencing
CCCCC/C=C\C/C=C\CCCCCCCC(=O)O[C@@H](CCCCCCCC)[C@@H](CCCCCCCC(=O)O)OC(=O)CCCCCCC/C=C\C/C=C\CCCCC (racemic) [INT-A008, (±)-syn-9,10-Dilinoleoxystearic Acid] | – | – | – | – | – | – | – | – | – | – | – | – | – | – | – | – | – | – | – | – | Peptide:Lipid [1, 15]: 0.104 wt/wt; Particle Diameter [5, 15]: 39 nm; Polydispersity index (PDI) [5, 15]: 0.058
CCCCC/C=C\C/C=C\CCCCCCCC(=O)O[C@@H](CCCCCCCC)[C@@H](CCCCCCCC(=O)OCCN(CC)CC)OC(=O)CCCCCCC/C=C\C/C=C\CCCCC (racemic) [INT-A004, 2-(Diethylamino)ethyl (±)-syn-9,10-dilinoleoxystearate] | 0.073 | 0.158 | – | 96 | 88 | 61 | can effectively deliver mRNA | – | – | 42 | 0.090 | 59 | 0.051 | 40 | 0.034 | 45 | 0.065 | 58 | 0.024 | can effectively deliver mRNA | Apparent pKa [8]: 5.8
CCCCCCCCC(CCCCCC)C(=O)O[C@@H](CCCCCCCC)[C@@H](CCCCCCCC(=O)O)OC(=O)C(CCCCCC)CCCCCCCC (mixture of isomers) [INT-A009, (±)-syn-9,10-Bis(2-hexyldecanoyloxy)stearic Acid] | – | – | – | – | – | – | – | – | – | – | – | – | – | – | – | – | – | – | – | – | Peptide:Lipid [1, 15]: 0.121 wt/wt; Particle Diameter [5, 15]: 39 nm; Polydispersity index (PDI) [5, 15]: 0.057
CCCCC/C=C\C/C=C\CCCCCCCC(=O)O[C@@H](CCCCCCCC)[C@@H](CCCCCCCC(=O)OCCCN(CC)CC)OC(=O)CCCCCCC/C=C\C/C=C\CCCCC (racemic) [INT-A002, 3-(Diethylamino)propyl (±)-syn-9,10-dilinoleoxystearate] | – | 0.157 | 0.093 | 99 | 92 | 97 | – | 83 | 0.027 | 47 | 0.053 | – | – | 62 | 0.015 | 49 | 0.096 | 52 | 0.063 | can effectively deliver mRNA | Activity in delivering mRNA and inducing mRNA expression in vivo (liver luminescence) ([4]; 1 mg/kg): can effectively deliver mRNA; also recorded: most active; ED 50 (effective dose to achieve 50% gene-silencing) ([6]; i.v. LNP FVII siRNA, estimated): less than 0.1 mg/kg; Activity in mediating FVII gene-silencing (residual serum FVII levels) [6]: active in mediating gene-silencing; also recorded: most active
